{"source": "ChEMBL document CHEMBL6103552", "about": "“Identification of peptide-based hepatitis B virus capsid inhibitors based on the viral core protein” (Bioorg Med Chem Lett, 2025)", "type_in_all_cases": "subcellular", "key": {"[1]": {"target": "Core antigen (Hepatitis B virus) (UniProt Q03732)", "sequence (Q03732 as listed by the source)": "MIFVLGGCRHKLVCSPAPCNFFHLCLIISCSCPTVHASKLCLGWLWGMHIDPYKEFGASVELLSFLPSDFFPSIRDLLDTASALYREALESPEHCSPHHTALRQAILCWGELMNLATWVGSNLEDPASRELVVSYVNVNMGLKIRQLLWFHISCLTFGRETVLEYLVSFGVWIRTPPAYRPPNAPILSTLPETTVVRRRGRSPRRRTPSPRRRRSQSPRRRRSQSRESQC", "assay": "Inhibition of Hepatitis B virus capsid formation at 100 uM treated during cell-free wild type HBV Cp synthesis using wheat germ lysates and HBV Cp RNA by Native capsid assay based western blot analysis"}, "[2]": {"target": "Core antigen (Hepatitis B virus, UniProt Q03732)", "sequence (Q03732 whole entry)": "as the sequence (Q03732 as listed by the source) above", "assay": "Inhibition of Hepatitis B virus capsid formation treated during cell-free wild type HBV Cp synthesis using wheat germ lysates and HBV Cp RNA by Denatured capsid assay based western blot analysis"}, "[3]": {"target": "Core antigen (Hepatitis B virus) (UniProt Q03732)", "assay": "Inhibition of Hepatitis B virus capsid formation at 100 uM treated during cell-free HBV Cp T33N mutant synthesis using wheat germ lysates and HBV Cp RNA by Denatured capsid assay based western blot analysis"}, "[4]": {"target": "Core antigen (Hepatitis B virus) (UniProt Q03732)", "assay": "Inhibition of Hepatitis B virus capsid formation at 10 uM treated during cell-free HBV Cp T33N mutant synthesis using wheat germ lysates and HBV Cp RNA by Denatured capsid assay based western blot analysis"}, "[5]": {"target": "Core antigen (Hepatitis B virus) (UniProt Q03732)", "assay": "Inhibition of Hepatitis B virus capsid formation at 3 uM treated during cell-free wild type HBV Cp synthesis using wheat germ lysates and HBV Cp RNA by Native capsid assay based western blot analysis"}}, "note": "Activity calls are given as the source filed them. Unless noted, the calls are words filed in the database; no cut-off is given here. Residues, ends and D or L forms follow the SMILES beside them.", "data": [{"smiles": "CC[C@H](C)[C@H](NC(=O)[C@H](Cc1c[nH]cn1)NC(=O)[C@H](Cc1ccccc1)NC(=O)[C@H](Cc1c[nH]c2ccccc12)NC(=O)[C@H](CC(C)C)NC(=O)[C@H](CC(C)C)NC(=O)[C@H](CCC(N)=O)NC(=O)[C@H](CCCNC(=N)N)NC(=O)[C@H](Cc1ccccc1)NC(=O)[C@H](CCCCN)NC(=O)[C@H](CC(C)C)NC(=O)CNC(=O)[C@H](CCSC)NC(=O)[C@H](CC(N)=O)NC(=O)[C@@H](NC(C)=O)C(C)C)C(N)=O", "values": [{"measurement": "inhibition", "setting": "[1]", "result": "Active; Significantly Inhibited Hbv-Capsid Formation Of 72 Peptides Tested"}, {"measurement": "IC50", "setting": "[2]", "result": 97.8, "unit": "µM"}, {"measurement": "inhibition", "setting": "[3]", "result": "Active; Comparable Activity To Gls4, Positive Control"}, {"measurement": "inhibition", "setting": "[4]", "result": "Active; Same Efficacy As Gls4 Observed"}]}, {"smiles": "CCOC(=O)C1=C(CN2CCOCC2)NC(c2nccs2)=NC1c1ccc(F)cc1Br", "note": "(stereo not given)", "values": [{"measurement": "inhibition", "setting": "[5]", "result": "Active"}]}, {"smiles": "CC[C@H](C)[C@H](NC(=O)[C@H](Cc1c[nH]cn1)NC(=O)[C@H](Cc1ccccc1)NC(=O)[C@H](Cc1c[nH]c2ccccc12)NC(=O)[C@H](CC(C)C)NC(=O)[C@H](CC(C)C)NC(=O)[C@H](CCC(N)=O)NC(=O)[C@H](CCCNC(=N)N)NC(=O)[C@H](Cc1ccccc1)NC(=O)[C@H](CCCCN)NC(C)=O)C(=O)N[C@@H](CO)C(=O)N[C@@H](CS)C(=O)N[C@@H](CC(C)C)C(=O)N[C@H](C(=O)N[C@@H](Cc1ccccc1)C(N)=O)[C@@H](C)O", "note": "(Ac-KFRQLLWFHISCLTF-NH2)", "values": [{"measurement": "inhibition", "setting": "[1]", "result": "Active; Significantly Inhibited Hbv-Capsid Formation Of 72 Peptides Tested"}, {"measurement": "IC50", "setting": "[2]", "result": 43.7, "unit": "µM"}, {"measurement": "inhibition", "setting": "[3]", "result": "Active; Comparable Activity To Gls4, Positive Control"}, {"measurement": "inhibition", "setting": "[4]", "result": "Active; Greater Efficacy Compared To Gls4 Observed"}]}, {"smiles": "CSCC[C@H](NC(=O)[C@H](CC(N)=O)NC(=O)[C@@H](NC(=O)[C@H](CC(N)=O)NC(=O)[C@@H](NC(=O)[C@H](Cc1ccc(O)cc1)NC(=O)[C@H](CO)NC(=O)[C@@H](N)C(C)C)C(C)C)C(C)C)C(=O)NCC(=O)N[C@@H](CC(C)C)C(=O)N[C@@H](CCCCN)C(=O)N[C@@H](Cc1ccccc1)C(=O)N[C@@H](CCCNC(=N)N)C(=O)N[C@@H](CCC(N)=O)C(=O)N[C@@H](CC(C)C)C(N)=O", "note": "(H-VSYVNVNMGLKFRQL-NH2)", "values": [{"measurement": "inhibition", "setting": "[1]", "result": "inactive"}]}]}
